Assay results from the NIST ThermoML archive (doi:10.1021/je900550v).
Numbers after ± are expanded uncertainties.

Conditions: 101.33 kPa, Liquid; for speed of sound: Pulse-echo method; for mass density: Vibrating tube method

CCCC(=O)[O-].C[NH2+]CCO [N-methyl-2-hydroxyethylammonium butanoate]
viscosity (308.15 K): 162.8 ± 13 mPa·s
speed of sound (308.15 K): 1583.1 ± 2.1 m/s
mass density (308.15 K): 1032.53 ± 2.2 kg/m3
speed of sound (308.4 K): 1582.3 ± 2.1 m/s
mass density (308.4 K): 1032.37 ± 2.2 kg/m3
speed of sound (308.65 K): 1581.5 ± 2.1 m/s
mass density (308.65 K): 1032.2 ± 2.2 kg/m3
speed of sound (308.9 K): 1580.7 ± 2.1 m/s
mass density (308.9 K): 1032.03 ± 2.2 kg/m3
speed of sound (309.15 K): 1580 ± 2.1 m/s
mass density (309.15 K): 1031.86 ± 2.2 kg/m3
speed of sound (309.4 K): 1579.2 ± 2.1 m/s
mass density (309.4 K): 1031.69 ± 2.2 kg/m3
speed of sound (309.65 K): 1578.4 ± 2.1 m/s
mass density (309.65 K): 1031.52 ± 2.2 kg/m3
speed of sound (309.9 K): 1577.6 ± 2.1 m/s
mass density (309.9 K): 1031.35 ± 2.2 kg/m3
speed of sound (310.15 K): 1576.8 ± 2.1 m/s
mass density (310.15 K): 1031.18 ± 2.2 kg/m3
speed of sound (310.4 K): 1576 ± 2.1 m/s
mass density (310.4 K): 1031.01 ± 2.2 kg/m3
viscosity (310.65 K): 141.4 ± 10 mPa·s
speed of sound (310.65 K): 1575.3 ± 2.1 m/s
mass density (310.65 K): 1030.85 ± 2.2 kg/m3
speed of sound (310.91 K): 1574.5 ± 2.1 m/s
mass density (310.91 K): 1030.68 ± 2.2 kg/m3
speed of sound (311.16 K): 1573.7 ± 2.1 m/s
mass density (311.16 K): 1030.51 ± 2.2 kg/m3
speed of sound (311.4 K): 1572.9 ± 2.1 m/s
mass density (311.4 K): 1030.34 ± 2.2 kg/m3
speed of sound (311.65 K): 1572.2 ± 2.1 m/s
mass density (311.65 K): 1030.17 ± 2.2 kg/m3
speed of sound (311.91 K): 1571.4 ± 2.1 m/s
mass density (311.91 K): 1030 ± 2.2 kg/m3
speed of sound (312.16 K): 1570.6 ± 2.1 m/s
mass density (312.16 K): 1029.83 ± 2.2 kg/m3
speed of sound (312.41 K): 1569.8 ± 2.1 m/s
mass density (312.41 K): 1029.65 ± 2.2 kg/m3
viscosity (312.65 K): 127.1 ± 8.3 mPa·s
speed of sound (312.66 K): 1569 ± 2.1 m/s
mass density (312.66 K): 1029.49 ± 2.2 kg/m3
speed of sound (312.91 K): 1568.3 ± 2.1 m/s
mass density (312.91 K): 1029.32 ± 2.2 kg/m3
speed of sound (313.16 K): 1567.5 ± 2.1 m/s
mass density (313.16 K): 1029.14 ± 2.2 kg/m3
speed of sound (313.4 K): 1566.7 ± 2.1 m/s
mass density (313.4 K): 1028.97 ± 2.2 kg/m3
speed of sound (313.66 K): 1565.9 ± 2.1 m/s
mass density (313.66 K): 1028.8 ± 2.2 kg/m3
speed of sound (313.9 K): 1565.2 ± 2.1 m/s
mass density (313.9 K): 1028.64 ± 2.2 kg/m3
speed of sound (314.15 K): 1564.4 ± 2.1 m/s
mass density (314.15 K): 1028.46 ± 2.2 kg/m3
speed of sound (314.4 K): 1563.6 ± 2.1 m/s
mass density (314.4 K): 1028.29 ± 2.2 kg/m3
speed of sound (314.65 K): 1562.9 ± 2.1 m/s
mass density (314.65 K): 1028.12 ± 2.2 kg/m3
speed of sound (314.9 K): 1562.1 ± 2.1 m/s
mass density (314.9 K): 1027.95 ± 2.2 kg/m3
viscosity (315.15 K): 107.78 ± 5.9 mPa·s
speed of sound (315.15 K): 1561.3 ± 2.1 m/s
mass density (315.15 K): 1027.78 ± 2.2 kg/m3
speed of sound (315.41 K): 1560.5 ± 2.1 m/s
mass density (315.41 K): 1027.61 ± 2.2 kg/m3
speed of sound (315.65 K): 1559.8 ± 2.1 m/s
mass density (315.65 K): 1027.43 ± 2.2 kg/m3
speed of sound (315.91 K): 1559 ± 2.1 m/s
mass density (315.91 K): 1027.26 ± 2.2 kg/m3
speed of sound (316.16 K): 1558.2 ± 2.1 m/s
mass density (316.16 K): 1027.09 ± 2.2 kg/m3
speed of sound (316.41 K): 1557.5 ± 2.1 m/s
mass density (316.41 K): 1026.92 ± 2.2 kg/m3
speed of sound (316.66 K): 1556.7 ± 2.1 m/s
mass density (316.66 K): 1026.75 ± 2.2 kg/m3
speed of sound (316.91 K): 1555.9 ± 2.1 m/s
mass density (316.91 K): 1026.58 ± 2.2 kg/m3
speed of sound (317.16 K): 1555.2 ± 2.1 m/s
mass density (317.16 K): 1026.41 ± 2.2 kg/m3
speed of sound (317.4 K): 1554.3 ± 2.1 m/s
mass density (317.4 K): 1026.23 ± 2.2 kg/m3
speed of sound (317.66 K): 1553.4 ± 2.1 m/s
mass density (317.66 K): 1026.06 ± 2.2 kg/m3
speed of sound (317.91 K): 1552.6 ± 2.1 m/s
mass density (317.91 K): 1025.89 ± 2.2 kg/m3
viscosity (318.15 K): 93.33 ± 4.3 mPa·s
speed of sound (318.16 K): 1551.9 ± 2.1 m/s
mass density (318.16 K): 1025.72 ± 2.2 kg/m3
speed of sound (318.41 K): 1551.1 ± 2.1 m/s
mass density (318.41 K): 1025.55 ± 2.2 kg/m3
speed of sound (318.65 K): 1550.3 ± 2.1 m/s
mass density (318.65 K): 1025.37 ± 2.2 kg/m3
speed of sound (318.9 K): 1549.5 ± 2.1 m/s
mass density (318.9 K): 1025.2 ± 2.2 kg/m3
speed of sound (319.16 K): 1548.7 ± 2.1 m/s
mass density (319.16 K): 1025.03 ± 2.2 kg/m3
speed of sound (319.41 K): 1548 ± 2.1 m/s
mass density (319.41 K): 1024.86 ± 2.2 kg/m3
speed of sound (319.65 K): 1547.2 ± 2.1 m/s
mass density (319.65 K): 1024.69 ± 2.2 kg/m3
speed of sound (319.91 K): 1546.4 ± 2.1 m/s
mass density (319.91 K): 1024.51 ± 2.2 kg/m3
viscosity (320.15 K): 79.57 ± 3.1 mPa·s
speed of sound (320.16 K): 1545.6 ± 2.1 m/s
mass density (320.16 K): 1024.34 ± 2.2 kg/m3
speed of sound (320.41 K): 1544.8 ± 2.1 m/s
mass density (320.41 K): 1024.17 ± 2.2 kg/m3
speed of sound (320.65 K): 1544 ± 2.1 m/s
mass density (320.65 K): 1024 ± 2.2 kg/m3
speed of sound (320.91 K): 1543.3 ± 2.1 m/s
mass density (320.91 K): 1023.82 ± 2.2 kg/m3
speed of sound (321.15 K): 1542.5 ± 2.1 m/s
mass density (321.15 K): 1023.65 ± 2.2 kg/m3
speed of sound (321.41 K): 1541.7 ± 2.1 m/s
mass density (321.41 K): 1023.47 ± 2.2 kg/m3
speed of sound (321.66 K): 1540.9 ± 2.1 m/s
mass density (321.66 K): 1023.3 ± 2.2 kg/m3
speed of sound (321.9 K): 1540.1 ± 2.1 m/s
mass density (321.9 K): 1023.13 ± 2.2 kg/m3
speed of sound (322.15 K): 1539.3 ± 2.1 m/s
mass density (322.15 K): 1022.96 ± 2.2 kg/m3
speed of sound (322.41 K): 1538.6 ± 2.1 m/s
mass density (322.41 K): 1022.78 ± 2.2 kg/m3
speed of sound (322.65 K): 1537.8 ± 2.1 m/s
mass density (322.65 K): 1022.61 ± 2.2 kg/m3
